Measurements: patent US20250101041A1, “POSITIVE ALLOSTERIC MODULATORS OF THE MUSCARINIC ACETYLCHOLINE RECEPTOR M4” (Vanderbilt University, priority 2022, published 2025)
pEC50: −log10 of the molar value.

Biological target: T1, human mAChR M4 (Homo sapiens, UniProt P08173)
T1 construct: expressed in transfected cells; host or cells: CHO-K1 (American Type Culture Collection), stably expressing hM4 and Gqi5
T1 sequence (P08173 1-479): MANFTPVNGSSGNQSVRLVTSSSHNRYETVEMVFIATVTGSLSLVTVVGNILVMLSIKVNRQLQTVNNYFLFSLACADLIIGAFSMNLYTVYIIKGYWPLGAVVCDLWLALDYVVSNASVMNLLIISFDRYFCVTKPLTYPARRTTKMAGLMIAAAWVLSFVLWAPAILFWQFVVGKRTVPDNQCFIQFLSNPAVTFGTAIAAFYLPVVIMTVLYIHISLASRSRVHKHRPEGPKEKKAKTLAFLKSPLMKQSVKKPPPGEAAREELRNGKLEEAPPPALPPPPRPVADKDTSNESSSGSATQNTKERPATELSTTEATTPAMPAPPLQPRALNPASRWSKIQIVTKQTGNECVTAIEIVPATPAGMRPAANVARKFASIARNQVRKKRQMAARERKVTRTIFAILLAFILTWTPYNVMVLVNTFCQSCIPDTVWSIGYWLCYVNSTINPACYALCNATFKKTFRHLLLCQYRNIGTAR
Experiment: mAChR M4 cell-based functional assay: calcium mobilization (Fluo-4, FDSS), potentiation of EC20 acetylcholine response in hM4-Gqi5 CHO-K1 cells
Settings: human M4; for Emax at 30 µM: CHO-K1, % ACh maximum at 30 μM; for pEC50: potentiation of EC20 acetylcholine response, calcium mobilization
Protocol: Human and rat M4 cDNAs, along with the chimeric G protein Gqi5, were transfected into Chinese hamster ovary (CHO-K1) cells purchased from the American Type Culture Collection using Lipofectamine2000. hM4-Gqi5 cells were grown in Ham's F-12 medium containing 10% heat-inactivated fetal bovine serum (FBS), 20 mM HEPES, 50 μg/mL G418 sulfate, and 500 μg/mL Hygromycin B. rM4-Gqi5 cells were grown in DMEM containing 10% heat-inactivated FBS, 20 mM HEPES, 400 μg/mL G418 sulfate, and 500 μg/mL Hygromycin B.
For high throughput measurement of agonist-evoked increases in intracellular calcium, CHO-K1 cells stably expressing muscarinic receptors were plated in growth medium lacking G418 and hygromycin at 15,000 cells/20 μL/well in Greiner 384-well black-walled, tissue culture (TC)-treated, clear-bottom plates (VWR). Cells were incubated overnight at 37° C. and 5% CO2. The next day, cells were washed using an ELX 405 (BioTek) with assay buffer; the final volume was then aspirated to 20 μL. Next, 20 μL of a […] of Fluo-4/acetoxymethyl ester (Invitrogen, Carlsbad, CA), prepared as a 2.3 mM stock in DMSO and mixed in a 1:1 ratio with 10% (w/v) Pluronic F-127 and diluted in assay buffer, was added to the wells and the cell plates were incubated for 50 min at 37° C. and 5% CO2. Dye was removed by washing with the ELX 405 and the final volume was aspirated to 20 μL. Compound master plates were formatted in an 11 point concentration-response curve (CRC) format (1:3 dilutions) in 100% DMSO with a starting concentration of 10 mM using a BRAVO liquid handler (Agilent). Test compound CRCs were then transferred to daughter plates (240 nL) using the Echo acoustic plate reformatter (Labcyte, Sunnyvale, CA) and then diluted into assay buffer (40 μL) to a 2× stock using a Thermo Fisher Combi (Thermo Fisher Scientific, Waltham, MA).
Calcium flux was measured using the Functional Drug Screening System (FDSS) 6000 or 7000 (Hamamatsu Corporation, Tokyo, Japan) as an increase in the fluorescent static ratio. Compounds were applied to cells (20 μL, 2X) using the automated system of the FDSS at 2-4 seconds into the protocol and the data were collected at 1 Hz. At 144 seconds, 10 μL of an EC20 concentration of the muscarinic receptor agonist acetylcholine was added (5×), followed by the addition of 12 μL of an […] concentration of acetylcholine at the 230 second time point (5×). Agonist activity was analyzed as a concentration-dependent increase in calcium mobilization upon compound addition. Positive allosteric modulator activity was analyzed as a concentration-dependent increase in the EC20 acetylcholine response. Antagonist activity was analyzed as a concentration-dependent decrease in the EC20 acetylcholine response. Concentration-response curves were generated using a four-parameter logistical equation in XLFit curve fitting software (IDBS, Bridgewater, NJ) for Excel (Microsoft, Redmond, WA) or Prism (GraphPad Software, Inc., San Diego, CA).
Compounds were synthesized as described above. Activity (EC50 and Emax) was determined in the mAChR M4 cell-based functional assay as described above and the data are shown in Table 4. The compound number corresponds to the compound numbers used in Tables 1-3.

Emax at 30 µM | pEC50 | SMILES
81% | 6.36 | Cc1cc2nccc(=O)n2nc1N1CCc2ncc(-c3cnn(C(F)F)c3C)cc2C1 [Compound 1-414, 7-(3-(1-(difluoromethyl)-5-methyl-1H-pyrazol-4-yl)-7,8-dihydro-1,6-naphthyridin-6(5H)-yl)-8-methyl-4H-pyrimido[1,2-b]pyridazin-4-one]
97% | 6.43 | Cc1cc(=O)n2nc(N3CCc4ncc(-c5cnccn5)cc4C3)c(C)c(C)c2n1 [Compound 1-125, 2,8,9-trimethyl-7-(3-(pyrazin-2-yl)-7,8-dihydro-1,6-naphthyridin-6(5H)-yl)-4H-pyrimido[1,2-b]pyridazin-4-one]
90% | 7.39 | Cc1cc2nccc(=O)n2nc1N1CCc2ncc(Nc3c(F)cncc3F)cc2C1 [Compound 2-154, 7-(3-((3,5-difluoropyridin-4-yl)amino)-7,8-dihydro-1,6-naphthyridin-6(5H)-yl)-8-methyl-4H-pyrimido[1,2-b]pyridazin-4-one]
89% | 6.07 | Cc1cc(=O)n2nc(N3CCc4ncc(-c5cncc(Cl)c5)cc4C3)c(C)c(C)c2n1 [Compound 1-123, 7-(3-(5-chloropyridin-3-yl)-7,8-dihydro-1,6-naphthyridin-6(5H)-yl)-2,8,9-trimethyl-4H-pyrimido[1,2-b]pyridazin-4-one]
90% | 7.72 | Cc1cc2nccc(=O)n2nc1N1CCc2ncc(Nc3ccccc3F)cc2C1 [Compound 2-98, 7-(3-((2-fluorophenyl)amino)-7,8-dihydro-1,6-naphthyridin-6(5H)-yl)-8-methyl-4H-pyrimido[1,2-b]pyridazin-4-one]
101% | 6.83 | Cc1ccc(-c2cnc3c(c2)CN(c2nn4c(=O)cc(C(F)(F)F)nc4c(C)c2C)CC3)cn1 [Compound 1-84, 8,9-dimethyl-7-(3-(6-methylpyridin-3-yl)-7,8-dihydro-1,6-naphthyridin-6(5H)-yl)-2-(trifluoromethyl)-4H-pyrimido[1,2-b]pyridazin-4-one]
84% | 6.27 | Cc1cc(=O)n2nc(N3CCc4ncc(-c5cc(F)c(F)cc5F)cc4C3)c(C)c(C)c2n1 [Compound 1-200, 2,8,9-trimethyl-7-(3-(2,4,5-trifluorophenyl)-7,8-dihydro-1,6-naphthyridin-6(5H)-yl)-4H-pyrimido[1,2-b] pyridazin-4-one]
86% | 6.22 | COc1ccc(-c2cnc3c(c2)CN(c2nn4c(=O)cc(C)nc4c(C)c2C)CC3)cc1F [Compound 1-201, 7-(3-(3-fluoro-4-methoxyphenyl)-7,8-dihydro-1,6-naphthyridin-6(5H)-yl)-2,8,9-trimethyl-4H-pyrimido[1,2-b]pyridazin-4-one]
77% | 6.40 | Cc1c(N2CCc3ncc(-c4ccccc4F)cc3C2)nn2c(=O)ccnc2c1C [Compound 1-343, 7-(3-(2-fluorophenyl)-7,8-dihydro-1,6-naphthyridin-6(5H)-yl)-8,9-dimethyl-4H-pyrimido[1,2-b]pyridazin-4-one]
83% | 5.99 | COCc1cc(=O)n2nc(N3CCc4ncc(-c5cnccc5OC)cc4C3)c(C)cc2n1 [Compound 1-384, 2-(methoxymethyl)-7-(3-(4-methoxypyridin-3-yl)-7,8-dihydro-1,6-naphthyridin-6(5H)-yl)-8-methyl-4H-pyrimido [1,2-b]pyridazin-4-one]
74% | 6.55 | Cc1ccc(-c2cnc3c(c2)CN(c2nn4c(=O)cc(C(=O)NCc5cncs5)nc4cc2C)CC3)cn1 [Compound 1-77, 8-Methyl-7-(3-(6-methylpyridin-3-yl)-7,8-dihydro-1,6-naphthyridin-6(5H)-yl)-4-oxo-N-(thiazol-5-ylmethyl)-4H-pyrimido[1,2-b]pyridazine-2-carboxamide]
83% | 7.01 | Cc1ccc(-c2cnc3c(c2)CN(c2nn4c(=O)c(Br)cnc4c(C)c2C)CC3)cn1 [Compound 1-88, 3-bromo-8,9-dimethyl-7-(3-(6-methylpyridin-3-yl)-7,8-dihydro-1,6-naphthyridin-6(5H)-yl)-4H-pyrimido[1,2-b]pyridazin-4-one]
85% | 6.53 | COc1cc(-c2cnc3c(c2)CN(c2nn4c(=O)ccnc4cc2C)CC3)ccc1F [Compound 1-51, 7-(3-(4-fluoro-3-methoxyphenyl)-7,8-dihydro-1,6-naphthyridin-6(5H)-yl)-8-methyl-4H-pyrimido[1,2-b]pyridazin-4-one]
106% | 6.76 | Cc1cc2nccc(=O)n2nc1N1CCc2ncc(Nc3cccnc3)cc2C1 [Compound 2-88, 8-methyl-7-(3-(pyridin-3-ylamino)-7,8-dihydro-1,6-naphthyridin-6(5H)-yl)-4H-pyrimido[1,2-b]pyridazin-4-one]
82% | 6.75 | Cc1cc2nccc(=O)n2nc1N1CCc2ncc(-c3ccsc3C#N)cc2C1 [Compound 1-410, 3-(6-(8-methyl-4-oxo-4H-pyrimido[1,2-b]pyridazin-7-yl)-5,6,7,8-tetrahydro-1,6-naphthyridin-3-yl)thiophene-2-carbonitrile]
54% | 5.75 | Cc1cc(=O)n2nc(N3CCc4ncc(-c5ccccc5OC(F)(F)F)cc4C3)c(C)c(C)c2n1 [Compound 1-275, 2,8,9-trimethyl-7-(3-(2-(trifluoromethoxy)phenyl)-7,8-dihydro-1,6-naphthyridin-6(5H)-yl)-4H-pyrimido[1,2-b]pyridazin-4-one]
93% | 6.55 | [2H]C1([2H])Cc2ncc(-c3ccnn3C)cc2C([2H])([2H])N1c1nn2c(=O)ccnc2cc1C [Compound 1-449, 8-methyl-7-(3-(1-methyl-1H-pyrazol-5-yl)-7,8-dihydro-1,6-naphthyridin-6(5H)-yl-5,5,7,7-d4)-4H-pyrimido[1,2-b]pyridazin-4-one]
87% | 6.11 | Cc1cc(=O)n2nc(N3CCc4ncc(-c5cccnc5F)cc4C3)c(C)cc2n1 [Compound 1-69, 7-(3-(2-fluoropyridin-3-yl)-7,8-dihydro-1,6-naphthyridin-6(5H)-yl)-2,8-dimethyl-4H-pyrimido[1,2-b]pyridazin-4-one]
81% |  | Cc1cc(=O)n2nc(N3CCc4ncc(-c5ccccc5Cl)cc4C3)c(C)c(C)c2n1 [Compound 1-278, 7-(3-(2-chlorophenyl)-7,8-dihydro-1,6-naphthyridin-6(5H)-yl)-2,8,9-trimethyl-4H-pyrimido[1,2-b]pyridazin-4-one]
59% |  | COCc1cc(=O)n2nc(N3CCc4ncc(-c5cncnc5)cc4C3)c(C)cc2n1 [Compound 1-324, 2-(methoxymethyl)-8-methyl-7-(3-(pyrimidin-5-yl)-7,8-dihydro-1,6-naphthyridin-6(5H)-yl)-4H-pyrimido[1,2-b] pyridazin-4-one]
79% | 6.91 | Cc1c(N2CCc3ncc(-c4ccc(C5CC5)nc4)cc3C2)nn2c(=O)cc(C(F)F)nc2c1C [Compound 1-94, 7-(3-(6-cyclopropylpyridin-3-yl)-7,8-dihydro-1,6-naphthyridin-6(5H)-yl)-2-(difluoromethyl)-8,9-dimethyl-4H-pyrimido[1,2-b]pyridazin-4-one]
